Data taken from PubChem BioAssay (NCI).
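Cells were grown in 96-well plates and exposed to each compound for 48 hours at five concentrations; endpoints were interpolated linearly between bracketing concentrations, or set to the highest concentration if not reached. The concentration for 50% growth inhibition is given as GI50. At the TGI there is no net growth.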

Columns and labels:
Test in all cases: NCI anticancer screen, dose series, 48 h
COLO 205 colon = tested on: COLO 205 colon
SK-OV-3 ovarian = tested on: SK-OV-3 ovarian
CAKI-1 renal = tested on: CAKI-1 renal
HOP-92 NSCLC = tested on: HOP-92 NSCLC
HL-60(TB) leukemia = tested on: HL-60(TB) leukemia
SK-MEL-28 melanoma = tested on: SK-MEL-28 melanoma
CCRF-CEM leukemia = tested on: CCRF-CEM leukemia
MOLT-4 leukemia = tested on: MOLT-4 leukemia

| Structure (SMILES) | GI50 (COLO 205 colon) [µM] | TGI (COLO 205 colon) [µM] | GI50 (SK-OV-3 ovarian) [µM] | TGI (SK-OV-3 ovarian) [µM] | GI50 (CAKI-1 renal) [µM] | TGI (CAKI-1 renal) [µM] | GI50 (HOP-92 NSCLC) [µM] | TGI (HOP-92 NSCLC) [µM] | GI50 (HL-60(TB) leukemia) [µM] | TGI (HL-60(TB) leukemia) [µM] | GI50 (SK-MEL-28 melanoma) [µM] | TGI (SK-MEL-28 melanoma) [µM] | GI50 (CCRF-CEM leukemia) [µM] | TGI (CCRF-CEM leukemia) [µM] | GI50 (MOLT-4 leukemia) [µM] | TGI (MOLT-4 leukemia) [µM] |
| --- | --- | --- | --- | --- | --- | --- | --- | --- | --- | --- | --- | --- | --- | --- | --- | --- |
| CC1=CC(C)=NN=C(N)N1S(=O)(=O)c1cc(C)c(Cl)cc1SCc1ccccc1 | 27.9 | > 100 | 77.7 | > 100 | > 100 | > 100 | 3.82 | 38.8 | 6.75 | > 100 | 88.5 | > 100 | 9.15 | > 100 | 6.18 | > 100 |
| CCCCC(CCCCCC(CCCC)NCc1ccc2c(c1)OCO2)NCc1ccc2c(c1)OCO2 (centres undefined) | 0.189 | 0.35 | 1.77 | 3.16 | 0.669 | 1.76 | 0.569 | 2.08 | 0.458 | 1.21 | 0.188 | 0.337 | 0.524 | 2.58 | 0.262 | 0.653 |
| COc1cc2c3cc1Oc1c(OC)c(OC)cc4c1C(=NCC4)Cc1ccc(cc1)Oc1cc(ccc1O)C[C@H]3N(C)CC2 | – | 26.3 | – | > 100 | – | 49.1 | – | 29.1 | – | 96.5 | – | 30.3 | – | > 100 | – | 66.2 |
| NC(N)=NCC1CCCCCCN1 (centres undefined) | – | > 100 | – | > 100 | – | > 100 | – | > 100 | – | > 100 | – | > 100 | – | > 100 | – | > 100 |
| CC1=C2CC(C)(C)/C=C\C(=O)/C(C)=C\C3=C[C@H](C)C[C@]3(O2)C1=O | – | 9.27 | – | 24.6 | – | 2.42 | – | 2.88 | – | 2.43 | – | 1.74 | – | 0.661 | – | 1.53 |
| O=C1/C=C/[C@@H](O)[C@@H]2C[C@@H](O)C[C@H]2/C=C/CCC[C@H](CCc2cccc3ccccc23)O1 | 0.0659 | 0.152 | 0.064 | 12 | 0.239 | 3.08 | 12.3 | 26.4 | 0.0923 | 0.366 | 0.0313 | 0.163 | 0.136 | 8.02 | 0.105 | 2.61 |
| Oc1ccc(Nc2ccc3ccccc3c2)cc1 | 17.5 | 35.4 | 17.2 | > 100 | 1.52 | 5.93 | 10.2 | 32.6 | 2.66 | 21.3 | 14.1 | > 100 | 7.69 | > 100 | 2.75 | 32.1 |
| COc1ccc(C#Cc2ccc(=O)oc2-c2cc(OC)c(OC)c(OC)c2)cc1O | 37.3 | > 100 | 6.58 | > 83.1 | 7.6 | > 100 | 0.575 | 38.8 | 2.13 | 17.4 | 18.2 | > 100 | 6.95 | > 100 | 6.3 | > 100 |
| O=C1/C(=C/c2ccccc2)CN(C(=O)C(Cl)Cl)C/C1=C\c1ccccc1 | 1.19 | 3.01 | 1.77 | 3.23 | 1.42 | 2.95 | 1.26 | 3.09 | 0.36 | 2.04 | 0.68 | 1.81 | 0.152 | – | 0.369 | – |
| COc1cc(Oc2c(C)c(Cl)c(OC)c(Cl)c2OC)c2c(c1Cl)COC2=O | – | > 100 | – | > 100 | – | > 100 | – | > 100 | – | 31.6 | – | > 100 | – | > 100 | – | 69.1 |
| CC1(C)S[C@@H]2[C@H](N3C(=O)c4ccccc4C3=O)CN2[C@H]1NC(=O)N[C@@H]1N2C[C@@H](N3C(=O)c4ccccc4C3=O)[C@H]2SC1(C)C | – | > 100 | – | > 100 | – | > 100 | – | > 100 | – | > 100 | – | > 100 | – | > 100 | – | > 100 |
| COC(=O)c1ccc2c(c1)C(=O)c1c-2n(CCCCl)c(=O)c2cc([N+](=O)[O-])ccc12 | > 100 | > 100 | > 100 | > 100 | 65.6 | > 100 | 23.6 | 90.9 | > 100 | > 100 | > 100 | > 100 | 52.8 | > 100 | 26 | > 100 |
| C=C1CC2(CC(c3ccccc3Cl)OC(c3ccccc3Cl)C2)OC1=O (centres undefined) | – | 5.51 | – | 16.9 | – | 5.11 | – | 4.65 | – | 12.1 | – | 3.65 | – | 10.1 | – | 6.19 |
| Cc1c(-c2ccc(C3CCCCC3)cc2)nc2ccc(F)cc2c1C(=O)O | 0.185 | > 100 | > 100 | > 100 | 0.0815 | > 100 | 15 | 97.5 | 0.335 | > 100 | 14.5 | > 100 | 0.0858 | > 100 | 0.0679 | > 100 |
